# Results as given in patent US5770732A, “Pyrrolinone-based peptidomimetics” (The Trustees of the University of Pennsylvania, priority 1994, dated 1998).
# Molecular target: T1, renin (Homo sapiens, UniProt P00797)
# T1 sequence (P00797 67-406): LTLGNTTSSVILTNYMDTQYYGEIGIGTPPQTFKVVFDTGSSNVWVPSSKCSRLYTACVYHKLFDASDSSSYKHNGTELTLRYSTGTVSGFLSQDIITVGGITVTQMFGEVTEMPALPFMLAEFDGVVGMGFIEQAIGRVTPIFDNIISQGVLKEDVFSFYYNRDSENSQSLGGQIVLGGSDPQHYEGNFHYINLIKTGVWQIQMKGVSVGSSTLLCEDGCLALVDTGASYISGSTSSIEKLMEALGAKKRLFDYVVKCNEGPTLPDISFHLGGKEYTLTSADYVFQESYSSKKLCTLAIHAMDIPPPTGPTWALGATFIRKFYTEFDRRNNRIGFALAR
# Test: Renin inhibition
# Format: biochemical
substance,measurement,value
[5(S)-prenyl-(5-benzyl)pyrrolin-4-one-3]-2(R)-isobutylacetate-[1-amino-1(S)-cyclohexylmethyl-2(R)3 3(S)-dihydroxy-5-methyl-hexane]-amide [Structure (10a)],concentration at which found to act as effective renin inhibitor,700 nM
